Source: PubChem BioAssay AID1259411 (Chemical Carcinogenesis Research Information System (CCRIS), 2018)
Active and inactive are the calls of the source. The rule behind the calls is not given here.

System: rodent carcinogenicity bioassays, tumor incidence
Assay: CCRIS carcinogenicity studies
How it was run: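 Archive of carcinogenicity, mutagenicity, tumor promotion and tumor inhibition results drawn from journals, NCI reports and other sources, expert-reviewed; covers 1985-2011 and is no longer updated.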

C1CCC2CCCCC2C1 (configuration not stated)
carcinogen call (Species: MOUSE, Strain/Sex: B6C3F1/FEMALE (50/GROUP), Route: INHALATION, Dose: 0, 25, 100, 400 PPM 6 HR/D, 5 D/WK FOR 105 WKS (STUDY DURATION: 105 WKS), Dose: 0, 25, 100, 400 PPM 6 HR/D, 5 D/WK FOR 105 WKS (STUDY DURATION: 105 WKS), Tumor Site: Type of Lesion: LIVER: HEPATOCELLULAR ADENOMA OR CARCINOMA (22%; 54%; 28%; 42%)): equivocal; ntp says marginal increase in uterine tumors but p values did not rea | carcinogen call (Species: MOUSE, Strain/Sex: B6C3F1/MALE (50/GROUP), Route: INHALATION, Dose: 0, 25, 100, 400 PPM 6 HR/D, 5 D/WK FOR 105 WKS (STUDY DURATION: 105 WKS), Dose: 0, 25, 100, 400 PPM 6 HR/D, 5 D/WK FOR 105 WKS (STUDY DURATION: 105 WKS)): inactive; negative | carcinogen call (Species: RAT, Strain/Sex: F344/FEMALE, Route: INHALATION, Dose: 0, 25, 100, 400 PPM IN AIR, 6 H PLUS 12 MIN/D, 5 D/WK FOR 2 YR (STUDY DURATION: 2 YR), Dose: 0, 25, 100, 400 PPM IN AIR, 6 H PLUS 12 MIN/D, 5 D/WK FOR 2 YR (STUDY DURATION: 2 YR)): inactive; negative | carcinogen call (Species: RAT, Strain/Sex: F344/MALE, Route: INHALATION, Dose: 0, 25, 50, 100, 400 PPM IN AIR , 6 H PLUS 12 MIN/D, 5 D/WK FOR 2 YR (STUDY DURATION: 2 YR), Dose: 0, 25, 50, 100, 400 PPM IN AIR , 6 H PLUS 12 MIN/D, 5 D/WK FOR 2 YR (STUDY DURATION: 2 YR), Tumor Site: Type of Lesion: KIDNEY: RENAL TUBULE ADENOMA, RENAL TUBULE ADENOMA OR CARCINOMA): active; positive | carcinogen call (Species: RAT, Strain/Sex: F344/N/FEMALE (50/GROUP), Route: INHALATION, Dose: 0, 25, 100, 400 PPM 6 HR/D, 5 D/WK FOR 105 WKS (STUDY DURATION: 105 WKS), Dose: 0, 25, 100, 400 PPM 6 HR/D, 5 D/WK FOR 105 WKS (STUDY DURATION: 105 WKS)): inactive; negative | carcinogen call (Species: RAT, Strain/Sex: F344/N/MALE (20/GROUP), Route: INHALATION, Dose: 400 PPM 6 HR/D, 5 D/WK FOR 105 WKS (STUDY DURATION: 105 WKS), Tumor Site: Type of Lesion: KIDNEY: RENAL TUBULE ADENOMA OR CARCINOMA (30%), ADRENAL: PHEOCHROMOCYTOMA (40%)): active; positive | carcinogen call (Species: RAT, Strain/Sex: F344/N/MALE (50/GROUP), Route: INHALATION, Dose: 0, 25, 50, 100 PPM 6 HR/D, 5 D/WK FOR 105 WKS (STUDY DURATION: 105 WKS), Dose: 0, 25, 50, 100 PPM 6 HR/D, 5 D/WK FOR 105 WKS (STUDY DURATION: 105 WKS), Tumor Site: Type of Lesion: KIDNEY: RENAL TUBULE ADENOMA OR CARCINOMA (2%; 6%; 14%; 24%), ADRENAL: BENIGN OR MALIGNANT PHEOCHROMOCYTOMA (16%, 18%, 2, Tumor Site: Type of Lesion: KIDNEY: RENAL TUBULE ADENOMA OR CARCINOMA (2%; 6%; 14%; 24%), ADRENAL: BENIGN OR MALIGNANT PHEOCHROMOCYTOMA (16%, 18%, 2): active; positive; alpha-2u-globulin, incidences of renal tubule regeneration and granula

Cc1ccc(N=Nc2c(O)ccc3ccccc23)c([N+](=O)[O-])c1
carcinogen call (Species: MOUSE, Strain/Sex: B6C3F1/FEMALE, Route: ORAL, Dose: 0, 12500, 25000, 50000 PPM IN FEED FOR 2 YR (STUDY DURATION: 2 YR), Dose: 0, 12500, 25000, 50000 PPM IN FEED FOR 2 YR (STUDY DURATION: 2 YR)): inactive; negative | carcinogen call (Species: MOUSE, Strain/Sex: B6C3F1/MALE, Route: ORAL, Dose: 0, 12500, 25000, 50000 PPM IN FEED FOR 2 YR (STUDY DURATION: 2 YR), Dose: 0, 12500, 25000, 50000 PPM IN FEED FOR 2 YR (STUDY DURATION: 2 YR), Tumor Site: Type of Lesion: KIDNEY (CORTEX): ADENOMA, THYROID GLAND (FOLLICULAR CELL): ADENOMA): active; positive | carcinogen call (Species: RAT, Strain/Sex: F344/FEMALE, Route: ORAL, Dose: 0, 6000, 12500, 25000 PPM IN FEED FOR 2 YR (STUDY DURATION: 2 YR), Dose: 0, 6000, 12500, 25000 PPM IN FEED FOR 2 YR (STUDY DURATION: 2 YR), Tumor Site: Type of Lesion: LIVER: HEPATOCELLULAR ADENOMA): active; positive | carcinogen call (Species: RAT, Strain/Sex: F344/MALE, Route: ORAL, Dose: 0, 6000, 12500, 25000 PPM IN FEED FOR 2 YR (STUDY DURATION: 2 YR), Dose: 0, 6000, 12500, 25000 PPM IN FEED FOR 2 YR (STUDY DURATION: 2 YR), Tumor Site: Type of Lesion: ADRENAL MEDULLA: PHEOCHROMOCYTOMA (BENIGN OR MALIGNANT)): active; positive

O=C1CCCCCN1
carcinogen call (Species: MOUSE, Strain/Sex: B6C3F1/FEMALE, Route: ORAL, Dose: 0, 7500, 15000 PPM IN DIET, Dose: 0, 7500, 15000 PPM IN DIET): inactive; negative | carcinogen call (Species: MOUSE, Strain/Sex: B6C3F1/MALE, Route: ORAL, Dose: 0, 7500, 15000 PPM IN DIET, Dose: 0, 7500, 15000 PPM IN DIET): inactive; negative | carcinogen call (Species: RAT, Strain/Sex: F344/FEMALE, Route: ORAL, Dose: 0, 3750, 7500 PPM IN DIET, Dose: 0, 3750, 7500 PPM IN DIET): inactive; negative | carcinogen call (Species: RAT, Strain/Sex: F344/MALE, Route: ORAL, Dose: 0, 3750, 7500 PPM IN DIET, Dose: 0, 3750, 7500 PPM IN DIET): inactive; negative

OCCN(CCO)CCO
carcinogen call (Species: MOUSE, Route: ORAL, Tumor Site: Type of Lesion: LYMPHATIC SYSTEM): active; positive | carcinogen call (Species: MOUSE, Strain/Sex: B6C3F1/FEMALE, Route: DERMAL, Dose: 0, 100, 300, 1000 MG/KG 5 D/WK FOR 104 -105 WKS (STUDY DURATION: 105 WKS), Dose: 0, 100, 300, 1000 MG/KG 5 D/WK FOR 104 -105 WKS (STUDY DURATION: 105 WKS), Tumor Site: Type of Lesion: LIVER: HEPATOCELLULAR ADENOMA OR CARCINOMA): active; positive | carcinogen call (Species: MOUSE, Strain/Sex: B6C3F1/FEMALE, Route: ORAL, Dose: 0, 1, 2% IN DRINKING WATER FOR 82 WK (STUDY DURATION: 82 WK), Dose: 0, 1, 2% IN DRINKING WATER FOR 82 WK (STUDY DURATION: 82 WK)): inactive; negative | carcinogen call (Species: MOUSE, Strain/Sex: B6C3F1/MALE, Route: DERMAL, Dose: 0, 200, 630, 2000 MG/KG 5D/WK FOR 104 WKS (STUDY DURATION: 104 WKS), Dose: 0, 200, 630, 2000 MG/KG 5D/WK FOR 104 WKS (STUDY DURATION: 104 WKS), Tumor Site: Type of Lesion: LIVER: HEMANGIOSARCOMA AT MEDIAN DOSE LEVEL): equivocal; p=0.047 at median dose for hemangiosarcoma | carcinogen call (Species: MOUSE, Strain/Sex: B6C3F1/MALE, Route: ORAL, Dose: 0, 1, 2% IN DRINKING WATER FOR 82 WK (STUDY DURATION: 82 WK), Dose: 0, 1, 2% IN DRINKING WATER FOR 82 WK (STUDY DURATION: 82 WK)): inactive; negative | carcinogen call (Species: RAT, Strain/Sex: F344/FEMALE, Route: DERMAL, Dose: 0, 32, 63, 125 MG/KG 5 D/WK FOR 103 WK (STUDY DURATION: 103 WK), Dose: 0, 32, 63, 125 MG/KG 5 D/WK FOR 103 WK (STUDY DURATION: 103 WK)): inactive; negative | carcinogen call (Species: RAT, Strain/Sex: F344/MALE, Route: DERMAL, Dose: 0, 32, 63, 125 MG/KG 5 D/WK FOR 103 WK (STUDY DURATION: 103 WK), Dose: 0, 32, 63, 125 MG/KG 5 D/WK FOR 103 WK (STUDY DURATION: 103 WK), Tumor Site: Type of Lesion: KIDNEY: RENAL TUBULE ADENOMA): equivocal
